One substance from US8586530B2, “Modulation of inhibition of ferrochelatase by N-methyl protoporphyrin” (University of South Florida, priority 2006, dated 2013) can be followed below.

The assay concerns the target T1, ferrochelatase variant P255G (Mus musculus, UniProt P22315, P308G).
T1 construct: In wild-type, murine, mature ferrochelatase, five tryptophan residues; penta-histidine tag (N); made in house; host or cells: E. coli BL21(DE3)
T1 sequence (P22315 54-422 P308G): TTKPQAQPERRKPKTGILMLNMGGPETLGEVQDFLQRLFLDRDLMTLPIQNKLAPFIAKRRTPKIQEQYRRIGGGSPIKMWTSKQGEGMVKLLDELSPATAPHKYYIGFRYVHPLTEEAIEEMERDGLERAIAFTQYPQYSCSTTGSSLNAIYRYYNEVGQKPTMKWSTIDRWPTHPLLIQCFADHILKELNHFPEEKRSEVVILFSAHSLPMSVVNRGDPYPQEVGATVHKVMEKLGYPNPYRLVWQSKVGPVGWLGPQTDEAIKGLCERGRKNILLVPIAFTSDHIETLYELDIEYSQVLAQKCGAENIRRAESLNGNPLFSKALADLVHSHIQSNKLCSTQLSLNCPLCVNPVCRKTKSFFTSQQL
The assay can be described thus: Transient kinetic analysis of NMPP inhibition (stopped-flow, zinc-protoporphyrin formation). In kind it is biochemical, murine. The method, then: Enzyme (0.5 μM) was reacted with protoporphyrin (5 μM) and zinc-acetate (15 μM) in the presence of various concentrations of NMPP. The pseudo first-order rate constant k was obtained from analysis of the time course (see Materials and Methods and FIG. 4) and plotted against NMPP concentration. The enzymes used in each set were: A. wild-type ferrochelatase; B. variant P255R; C. variant P255G.
The pseudo-first order rate constant dependence on NMPP concentration was best described by equation 2:
[formula] and k−1 are the forward and reverse rate constants, respectively.
Although NMPP binding to P255G occurred via a one-step reaction, the values for the rate constants associated with this step (k1 and k−1) were similar to those determined for the rate-limiting step of the kinetic pathway for inhibition of ferrochelatase and P255R by NMPP.
Transient Kinetic Analysis. The kinetic steps involved in NMPP binding to ferrochelatase were assessed using stopped-flow absorption spectroscopic analysis by monitoring the enzymatic reaction in the presence of various concentrations of the inhibitor NMPP. The reactions were performed using a rapid scanning stopped-flow spectrophotometer (model RSM-1000; OLIS Inc.), equipped with a stopped-flow mixer and an observation chamber with an optical path-length of 4 mm. The dead time of the instrument is ˜2 ms. […] Enzymatic activity was monitored by following the increase in absorbance at 420 nm for zinc-protoporphyrin production using Zn^2+ and protoporphyrin as substrates.
The enzyme and substrate stock solutions were diluted in 100 mM Tris-acetate, pH 8.0, containing 0.5% Tween-80. […] The enzymatic reaction was initiated by mixing the contents from both syringes and reaction progression was monitored by following the increase in absorbance at 420 nm. The data were analyzed by fitting the observed absorbance values to equation 4:
[formula] where A is the observed absorbance, A0 is the initial absorbance, vs is the steady-state velocity, v0 is the initial velocity and k is the pseudo-first order rate constant for inhibitor binding. […]

Turning to N-methyl protoporphyrin [NMPP], the “forward rate constant (one-step binding)” value was found to be 8.2 µM⁻¹ s⁻¹ and the “reverse rate constant k−1 (one-step binding)” value worked out at 18.7 s⁻¹. The Ki (one-step fit (equation 2), from the rate constants, read-out: apparent inhibition constant Ki^app) stood at 2300 nM.
